This note sets out measurements from patent publication US8053439B2, “Benzophenone derivatives useful for inhibiting formation of microtubule” (Chong Kun Dang Pharmaceutical Corp., priority 2006, dated 2011).

Like-named read-outs stand apart in the source and are kept apart here.

The test deals with HL60 cells. As to the kind of experiment: Inhibition effect of HL60 cell line growth (MTT, 3 days). It is filed as cell-based. Conditions: Homo sapiens, HL-60, 72 h, read-out: HL60 Growth Inhibition. The method, then: 1. Inhibition Effect of HL60 Cell Line Growth
A 10% FBS-contained RPMI1640 badge was used for culturing HL60 cells. The test substance was prepared by dissolving in DMSO to a concentration of 10 mg/ml, and continuously diluting with PBS to a final concentration of 100 μg/ml to 0.03 μg/ml. In a 96-well microplate, 180 μl of the badge containing 6.0×10^4 cells/ml of cells and 20 μl of continuously diluted test substance were added. The mixture was cultured at 37° C. with 5% CO2 atmosphere for 3 days. After completion of the cultivation, 50 μl of a solution of 1.25 mg/ml MTT (3-(4,5-dimethylthiazol-2-yl)-2,5-diphenyltetrazolium bromide) dissolved in PBS was added to all wells, and the resulting mixture was reacted at 37° C. for 3 hours. Thus formed formazan crystals were dissolved in 150 μl of DMSO, and an absorbance was measured at 570 nm.

[1] abbreviates: HL60 cells, 3 days culture, MTT, absorbance 570 nm.

For the compound `COc1cc(C(=O)c2cc(-c3csc(N)n3)ccc2N)cc(OC)c1OC` [Compound 297, (2-amino-5-(2-aminothiazol-4-yl)phenyl)(3,4,5-trimethoxyphenyl)methanone], the IC50 under setting [1] was found to be 35 nM. Same read-out and setting: the result for `COc1cc(C(=O)c2ccc(-c3ccsc3)cc2F)cc(OC)c1OC` [Compound 458, (2-fluoro-4-(thiophen-3-yl)phenyl)(3,4,5-trimethoxyphenyl)methanone] reads 3180 nM.

For the compound `Nc1nc(-c2ccc(C(=O)c3ccccc3)c(-n3cncn3)c2)cs1` [Compound 519, (4-(2-aminothiazol-4-yl)-2-(1H-1,24-triazol-1-yl)phenyl)(phenyl)methanone], the IC50 under setting [1] was 25000 nM.

Consider `COc1cc(C(=O)c2cc(-c3ccco3)ccc2NCCCO)cc(OC)c1OC` [Compound 341, (5-(furan-2-yl)-2-(3-hydroxypropylamino)phenyl)(3,4,5-trimethoxyphenyl)methanone], for which the IC50 under setting [1] came to 110 nM. On the same count and under the same terms, to `COc1cc(C(=O)c2cc(-c3ccccn3)ccc2-n2cncn2)cc(OC)c1OC` [Compound 346, (5-(pyridin-2-yl)-2-(1H-1,2,4-triazol-1-yl)phenyl)(3,4,5-trimethoxyphenyl)methanone] belongs 100 nM.

Regarding `COc1cc(C(=O)c2cc(-c3nccs3)ccc2N)cc(OC)c1OC` [Compound 278, (2-amino-5-(thiazol-2-yl)phenyl)(3,4,5-trimethoxyphenyl)methanone], the IC50 was 30 nM. `COc1cc(C(=O)c2ccc(-c3c[nH]c(NC(C)=O)n3)cc2-n2cncn2)cc(OC)c1OC` [Compound 531, N-(4-(3-(1H-1,2,4-triazol-1-yl)-4-(3,4,5-trimethoxybenzoyl)phenyl)-1H-imidazol-2-yl)acetamide]: under setting [1], the IC50 stood at 330 nM. Consider `COc1cc(C(=O)c2ccc(-c3ncco3)cc2-n2cncn2)cc(OC)c1OC` [Compound 602, (4-(oxazol-2-yl)-2-(1H-1,2,4-triazol-1-yl)phenyl)(3,4,5-trimethoxyphenyl)methanone], for which, under setting [1], the IC50 amounted to 170 nM.

Consider `C=CCc1cc(C(=O)c2cc(-c3ccco3)ccc2OC)cc(OC)c1O` [Compound 269, (3-allyl-4-hydroxy-5-methoxyphenyl)(5-(furan-2-yl)-2-methoxyphenyl)methanone], for which the IC50 under setting [1] was 1690 nM.

As to `COc1cc(C(=O)c2cc(-c3ccc[nH]3)ccc2NCCCO)cc(OC)c1OC` [Compound 363, (2-(3-hydroxypropylamino)-5-(1H-pyrrole-2-yl)phenyl)(3,4,5-trimethoxyphenyl)methanone], the IC50 under setting [1] was 110 nM. As to `COc1ccc(-c2ccco2)cc1C(=O)c1cc(OC)c(OC)c(OC)c1` [Compound 203, (5-(furan-2-yl)-2-methoxyphenyl)(3,4,5-trimethoxyphenyl)methanone], the IC50 under setting [1] was determined as 35 nM. Regarding `COc1cc(C(=O)c2ccc(-c3nccs3)cc2-n2cncn2)cc(OC)c1OC` [Compound 464, (4-(thiazol-2-yl)-2-(1H-1,2,4-triazol-1-yl)phenyl)(3,4,5-trimethoxyphenyl)methanone], the IC50 under setting [1] came out at 90 nM. Still for that read-out and setting: to `COc1cc(C(=O)c2cc(-c3cccc(N)c3)ccc2N)cc(OC)c1OC` [Compound 337, (4,5′-diaminophenyl-3-yl)(3,4,5-trimethoxyphenyl)methanone] belongs 190 nM; to `COC(=O)Nc1nc(-c2ccc(C(=O)c3cc(OC)c(OC)c(OC)c3)c(-n3cncn3)c2)cs1` [Compound 561, methyl 4-(3-(1H-1,2,4-triazol-1-yl)-4-(3,4,5-trimethoxybenzoyl)phenyl)thiazol-2-yl carbamate], 320 nM. Still for that read-out and setting: to `COc1cc(C(=O)c2cccc(-c3csc(N)n3)c2)cc(OC)c1OC` [Compound 570, (3-(2-aminothiazol-4-yl)phenyl)(3,4,5-trimethoxyphenyl)methanone] belongs 120 nM. With `COc1ccc(-c2cccnc2)cc1C(=O)c1cc(OC)c(OC)c(OC)c1` [Compound 200, (2-methoxy-5-(pyridin-3-yl)phenyl)(3,4,5-trimethoxyphenyl)methanone], the IC50 amounted to 130 nM. With `COC(=O)c1ccc(-c2nccs2)cc1C(=O)c1cc(OC)c(OC)c(OC)c1` [Compound 374, 4-(thiazol-2-yl)-2-(3,4,5-trimethoxybenzoyl)benzoic acid methyl ester], the IC50 under setting [1] amounted to 100 nM.

In the case of `COc1ccc(-c2nccs2)cc1C(=O)c1cc(OC)c(OC)c(OC)c1` [Compound 583, (2-methoxy-5-(thiazol-2-yl)phenyl)(3,4,5-trimethoxyphenyl)methanone], the IC50 was determined as 10 nM.

Turning to `COc1cc(C(=O)c2cc(-c3cccs3)ccc2N)cc(OC)c1OC` [Compound 283, (2-amino-5-(thiophen-2-yl)phenyl)(3,4,5-trimethoxyphenyl)methanone], under setting [1], the IC50 was determined as 48 nM. Still for that read-out and setting: the result for `COc1cc(C(=O)c2ccc(-c3nc(CO)cs3)cc2-n2cncn2)cc(OC)c1OC` [Compound 554, ((4-(4-hydroxymethyl)thiazol-2-yl)-2-(1H-1,2,4-triazol-1-yl)phenyl)(3,4,5-trimethoxyphenyl)methanone] reads 90 nM; that for `COc1cc(C(=O)c2ccc(-c3ccco3)cc2-n2cncn2)cc(OC)c1OC` [Compound 443, (4-(furan-2-yl)-2-(1H-1,2,4-triazol-1-yl)phenyl)(3,4,5-trimethoxyphenyl)methanone], 80 nM. On the same count and under the same terms, the result for `COc1cc(C(=O)c2cccc(-c3nccs3)c2)cc(OC)c1OC` [Compound 581] reads 40 nM.

Regarding `COc1cc(C(=O)c2cc(-c3ccc[nH]3)ccc2-n2cncn2)cc(OC)c1OC` [Compound 409, (5-(1H-pyrrole-2-yl)-2-(1H-1,2,4-triazol-1-yl)phenyl)(3,4,5-trimethoxyphenyl)methanone], the IC50 under setting [1] was found to be 30 nM. The same measure, in the same setting: the result for `COc1cc(C(=O)c2ccc(-c3nccs3)cc2-n2cncn2)cc(OC)c1OC(F)F` [Compound 538, (4-(difluoromethoxy)-3,5-dimethoxyphenyl)(4-(thiazol-2-yl)-2-(1H-1,2,4-triazol-1-yl)phenyl)methanone] reads 280 nM. Take `CNc1ccc(-c2ccco2)cc1C(=O)c1cc(OC)c(OC)c(OC)c1` [Compound 282, (5-(furan-2-yl)-2-(methylamino)phenyl)(3,4,5-trimethoxyphenyl)methanone]: under setting [1], the IC50 was found to be 150 nM.

`COc1cc(C(=O)c2ccc(-c3cccnc3)cc2-n2cncn2)cc(OC)c1OC` [Compound 511, (4-pyridin-3-yl-2-[1,2,4]thiazol-1-yl-phenyl)(3,4,5-trimethoxyphenyl)methanone]: the IC50 is 100 nM.

Take `COc1cc(C(=O)c2cc(-c3ccco3)cc(OC)c2OC)cc(OC)c1OC` [Compound 206, (5-(furan-2-yl)-2,3-dimethoxyphenyl)(3,4,5-trimethoxyphenyl)methanone]: the IC50 is 145 nM. As to `COc1cc(C(=O)c2ccc(-c3csc(N)n3)cc2-n2cncn2)cc(OC)c1OC(F)F` [Compound 547, (4-(2-aminothiazol-4-yl)-2-(1H-1,2,4-triazol-1-yl)phenyl)(4-(difluoromethoxy)-3,5-dimethoxyphenyl)methanone], the IC50 under setting [1] is 30 nM. As for `COc1ccc(-c2ccsc2)cc1C(=O)c1cc(OC)c(OC)c(OC)c1` [Compound 588, (2-methoxy-5-(thiophen-3-yl)phenyl)(3,4,5-trimethoxyphenyl)methanone], the IC50 under setting [1] amounted to 120 nM. Turning to `COc1ccc(-c2csc(C)n2)cc1C(=O)c1cc(OC)c(OC)c(OC)c1` [Compound 595, (2-methoxy-5-(methylthiazol-4-yl)phenyl)(3,4,5-trimethoxyphenyl)methanone], the IC50 under setting [1] amounted to 120 nM.
